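Dose response: 5 concentrations. Exposure: 48 h. Format: 96-well plates. Endpoint: linear interpolation; highest concentration if not reached. The concentration for 50% growth inhibition is given as GI50. TGI is the concentration that stops growth completely.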
How the values were obtained:
Experiment in all cases: NCI anticancer screen, dose series, 48 h
[1] = test system: SF-539 CNS
[2] = test system: NCI-H522 lung
[3] = test system: MALME-3M melanoma
[4] = test system: UACC-62 melanoma
[5] = test system: RPMI-8226 leukemia
[6] = test system: OVCAR-3 ovarian
[7] = test system: SF-268 CNS
[8] = test system: HCT-116 colon
[9] = test system: KM12 colon
[10] = test system: SR leukemia

Structure (SMILES) | TGI [1] [µM] | TGI [2] [µM] | TGI [3] [µM] | TGI [4] [µM] | TGI [5] [µM] | TGI [6] [µM] | TGI [7] [µM] | TGI [8] [µM] | TGI [9] [µM] | TGI [10] [µM] | GI50 [1] [µM]
O=C1CCSSCCC(=O)Nc2ccccc2N1 | > 100 | > 100 | > 100 | > 100 | > 100 | > 100 | > 100 | > 100 | > 100 | > 100 | –
COc1cn2c(cc1=O)COc1ccc(-c3ccccc3)cc1-2 | > 100 | > 100 | > 84.1 | > 100 | > 100 | 98.8 | > 100 | > 100 | > 100 | > 100 | 43.6
O=c1oc2ccccc2cc1-c1nc2ccc([N+](=O)[O-])cc2o1 | > 100 | > 100 | > 100 | > 100 | > 100 | > 100 | > 100 | > 100 | > 100 | > 100 | –
O=C(Nc1cccc2nsnc12)c1cc2c(cc1Cl)Sc1nccn1S2(=O)=O | 10 | 32.3 | > 100 | 17.6 | 4.96 | 3.47 | 20.4 | 6.97 | 4.65 | > 21.8 | –
Cc1ccc2c(c1)c(=O)c1c(NCCN(C)C)ccc3nnn2c31 | 17.8 | 17.6 | 18 | 20.5 | 7.63 | > 42.8 | 20.2 | 15.2 | 11.7 | 7.67 | –
COc1cc(C(=O)Nc2nnc(S(N)(=O)=O)s2)cc(OC)c1OC | > 100 | > 100 | > 100 | > 100 | > 100 | > 100 | > 100 | > 100 | > 100 | > 100 | –
CSc1c(C(C)=O)c(O)n(-c2ccc(Cl)cc2)c(=O)c1C#N | > 100 | 21.9 | > 100 | > 100 | 99.2 | > 100 | > 100 | > 100 | > 100 | > 100 | –
C=C[C@]1(C)CC[C@]2(C)C(CC[C@@]3(C)C2C[C@H](O)[C@H](O)[C@@]3(C)O)C1 (stereo partly specified) | > 100 | > 100 | > 100 | > 100 | > 100 | > 100 | > 100 | > 100 | > 100 | > 100 | –
CCOC(=O)c1cc(-c2ccc(OC)c(OC)c2)c[nH]1 | > 10 | > 10 | > 10 | > 10 | > 10 | > 10 | > 10 | > 10 | > 10 | > 10 | –
COc1ccc(/C=N/Nc2[nH]c(=S)nc3[nH]ncc23)cc1 | > 100 | 79.9 | 99.4 | > 100 | > 100 | > 100 | > 100 | > 100 | > 100 | > 100 | –
CN(C)c1ccc(/C=C(\NC(=O)c2ccccc2)C(=O)Nc2ccccc2C(=O)NN2C(=O)CSC2c2ccc(N(C)C)cc2)cc1 (stereo unspecified) | > 100 | > 100 | > 100 | > 100 | > 100 | > 100 | > 100 | > 100 | > 100 | > 100 | –
c1ccc(C2=NN3CN(N2)c2ccccc2OCCCOc2ccccc23)cc1 | > 100 | > 100 | > 100 | > 100 | > 100 | > 100 | > 100 | > 100 | > 100 | > 100 | –
Cc1[nH]c(=O)nc(N/N=C/c2ccc(Cl)c(Cl)c2)c1C(=O)Nc1ccc(Cl)c(Cl)c1 | 41.2 | 44.7 | > 44.5 | 41.2 | > 100 | 24.5 | 40.7 | > 20.5 | > 22.2 | > 100 | –
CCOC(=O)c1c2c(n(C)c1-c1ccccc1)C(=O)C(C)=CC2=O | 14.6 | 5.83 | 22.8 | 23.9 | 4.81 | 8.17 | 23.1 | 15 | 22.5 | 9.39 | –
CCOC(=O)CCC(NC(=O)OCc1ccccc1)C(=O)NNC(=O)OC(C)(C)C (stereo unspecified) | > 100 | > 100 | > 100 | > 100 | > 100 | > 100 | > 100 | > 100 | > 100 | > 100 | –

From PubChem BioAssay (NCI)
